Measured values reported in a melting point compilation (Tetko et al.; mined from patent text by program, amines drawn as free bases though some values may be those of a salt).

Row | SMILES | melting point
1 | CC(=O)OCC1OC(n2cc(Cc3ccc(Br)cc3)c3c(C)cccc32)C(OC(C)=O)C(OC(C)=O)C1OC(C)=O (centres undefined) | 190 to 192 °C
2 | CC(C)CC(C#N)(C#N)Cc1ccc(Cl)cc1 | 73.2 °C
3 | O=C(Nc1ccc(C(=O)N2Cc3ccccc3Cc3ccccc32)cc1)c1ccc(Cl)c(Cl)c1 | 212 to 215 °C
4 | O=C(O)c1ccc(S(=O)(=O)Oc2c(Br)cc(-c3ccc(-c4c(Cc5ccccc5)sc5ccccc45)cc3)cc2Br)cc1O | 192 to 194 °C
5 | N#Cc1cn(-c2c(Cl)cc(C(F)(F)F)cc2Cl)nc1[N+](=O)[O-] | 163 to 165 °C
6 | FC(F)(F)c1ccc(-c2ccc(N3CCCN(c4ccc(-c5ccc(C(F)(F)F)cc5)cn4)CC3)nc2)cc1 | 236 to 238 °C
7 | CC(C)(C)c1cccc(S(=O)(=O)n2c(Cc3ccc(C(=O)O)cc3)cc3ccc(C(F)(F)F)cc32)c1 | 199 °C
8 | NS(=O)(=O)c1ccc(-c2cc(-c3nc(-c4ccc(C(F)(F)F)nc4)cc(C(F)F)n3)ccn2)s1 | 270 °C
9 | FC(F)(F)C1(c2cc(Cl)cc(Cl)c2)CC(c2ccc(CBr)c(Cl)c2)=NO1 (centres undefined) | 94 to 97 °C
10 | CNC(=O)[C@@H](C[C@H](O)[C@H](CC1CCCCC1)NC(=O)[C@H](Cc1cscn1)NC(=O)[C@@H](CC(=O)N1CCOCC1)Cc1ccccc1)C(C)(C)O | 150 to 152 °C
11 | COc1ccc(NC(C)c2ccccc2)cc1 (centres undefined) | 64 °C
12 | CS(=O)(=O)c1cc(Cl)ccc1C(=O)c1cnoc1C1CC1 | 183 to 185 °C
13 | COc1ccc(N(N)c2cc(Cl)nc(Cl)n2)cc1 | 113 to 115 °C
14 | [N-]=[N+]=NCCCCCCC(N)=O | 62 °C
15 | CCC(C)NC(=O)c1ncc(C)cc1C(N)=O (centres undefined) | 119 to 123 °C
16 | C=C(C)[C@H]1CC[C@@](C)(O)[C@H](N[C@@H](C)C2CCCCC2)C1 | 63 to 64 °C
17 | CCc1c(-c2ccncc2)[nH]c2ccc(C3=NNC(=O)CC3)cc12 | > 300 °C
18 | Cc1cc(SCc2cccc3nn(-c4ccc(C(F)(F)F)cc4)cc23)ccc1OC(C)(C)C(=O)O | 125 to 127 °C
19 | Cc1oc2cc(C3CC(=O)N(C4CC4)C(=O)C3)ccc2c1C | 180 to 182 °C
20 | Cc1ccc(-c2nc(COc3ccc(CCCCn4ccnc4)cc3)co2)o1 | 91 to 92 °C

Row | SMILES | melting point
21 | CCNc1ccc(C)c(O)c1 | 128 to 129 °C
22 | C[C@]12CC(I)C(=O)C=C1CC[C@@H]1[C@@H]2CC[C@]2(C)C(=O)CC[C@@H]12 (some centres undefined) | 92 °C
23 | CN(Cc1ccc(NC(=O)C2=Cc3cc(-c4ccc(O)cc4)ccc3S(=O)(=O)CC2)cc1)C1CCOCC1 | 232 to 234 °C
24 | CC(=O)OC(C(C)C(C)C)C(OC(C)=O)C(C)C1CCC2C3CC(=O)C4CC=CCC4(C)C3CCC12C (centres undefined) | 210 to 213 °C
25 | CC1SC(=O)NN=C1c1ccc2c(c1)C(=NNc1ccc(C(C)(C)C)cc1)C(=O)N2 (centres undefined) | 299 °C
26 | CCC(CNC(=O)c1ccc(C(F)(F)F)c(NC(C)=O)c1)OC(C)=O (centres undefined) | 121 °C
27 | Nc1ncnc2c1nc(NCCP(=O)(O)O)n2C1OC(CO)C(O)C1O (centres undefined) | 175 °C
28 | CC(=O)C(=NNc1ccccc1)C(=O)Nc1ccccc1 | 96 to 97 °C
29 | Clc1ccc2c(c1)C(c1ccccc1)=NCc1nnc(COC(c3ccccc3)c3ccccc3)n1-2 | 202 to 203 °C
30 | Fc1cc(-c2ccno2)c(Cl)cc1Cl | 112 to 113 °C
31 | O=C1CCC(c2ccc(Cl)cc2)N1c1ccccc1 (centres undefined) | 82.5 to 83.5 °C
32 | Oc1ccc2nc(-c3ccc(O)c(F)c3)cc(-c3ccc(Cl)cc3)c2c1 | 140 to 147 °C
33 | CC(C)(C)OCC1C(=O)C(C)(C)C(=O)N1c1ccc(C#N)c(Cl)c1 (centres undefined) | 124 to 125 °C
34 | CC1(C(O)=Nc2cc(Cl)cc(Cl)c2)CC(F)C1(C)C(=O)O (centres undefined) | 122 to 123 °C
35 | CC(C)c1ccc(C(=O)C23CC4CC(CC(C4)C2)C3)c(C(C)C)c1OS(N)(=O)=O | 165 to 167 °C
36 | CC1(C)CC(=O)C2=C(C1)NC1=C(C(=O)CC(C)(C)C1)C2c1cccc(-n2ccnc2)c1 | 286 to 288 °C
37 | Oc1c(CN2CCOCC2)ncc2c1COC2c1ccccc1 (centres undefined) | 172 °C
38 | CN1CCN(C(c2ccccc2)c2ccccc2)CC1(C)Cc1ccc2c(c1)OCCO2 (centres undefined) | 118 to 120 °C
39 | COc1ccc(N2CCN(c3cc(C)c4c(c3C)CC(C)(C)O4)CC2)cc1 | 174 to 175 °C
40 | CCOC(=O)NNC(=O)NCCCl | 118 to 120 °C

Row | SMILES | melting point
41 | COC(=O)CCCCCCNC(=O)c1cn2c3c(cccc13)CCC2 | 66 to 67 °C
42 | Cc1cc(N)c(C)c(/C=C/C(=O)O)c1 | 185 °C
43 | CC1(C)CCC(C)(C)c2cc(-c3cc(Br)cc(C(=O)O)c3)ccc21 | 165 °C
44 | COC(=O)c1c(SC)nn(-c2c(Cl)cc(Cl)cc2Cl)c1N | 160 to 162 °C
45 | CC(=NNC=O)c1ccncc1Cl | 175 °C
46 | COC(=O)Nc1cccc(CC(C)N)c1 (centres undefined) | 93 to 95 °C
47 | FC(F)(F)c1cc(-c2ccc(Cl)cc2)nc2c(-c3ccncc3)cnn12 | 274 °C
48 | Cn1c(CCC#Cc2cccc(CF)n2)nc2ccccc21 | 95.3 to 96.3 °C
49 | O=C(O)CCCC/C=C(\c1cccnc1)c1ccc2c(c1)OCO2 | 90 to 91 °C
50 | CSc1ccc(CC(=O)O)cc1Cl | 106 to 108 °C
51 | CCNC(=O)n1nc(Oc2c(Cl)cc(C(F)(F)F)cc2Cl)c(CC)c1C | 120 to 123 °C
52 | O=Cc1c(O)ccc2c1OCCO2 | 62 to 63 °C
53 | Clc1cccc2c(CN3CC=C(c4ccc5[nH]ccc5c4)CC3)n[nH]c12 | 164 to 167 °C
54 | O=C(NCc1ccc(Cl)cc1)c1cn(N2CCCCC2)c2ccc(CN3CCOCC3)cc2c1=O | 161 to 164 °C
55 | COC(=O)NS(=O)(=O)Nc1c(C(C)C)cccc1C(C)C | 152 to 155 °C
56 | Brc1ccc(-c2ccncc2)cc1 | 123 to 124 °C
57 | CCCCCCCCCCC#Cc1csc(CC(CO)NC(C)=O)c1 (centres undefined) | 55 to 58 °C
58 | Cc1ccc(C(Cn2cncn2)c2ccccc2)cc1 (centres undefined) | 98 to 100 °C
59 | O=S(=O)(Nc1cccc(Nc2nc(NC3CCCC3)c3nc[nH]c3n2)c1)C(F)(F)F | 243 to 246 °C

Continued, values first:

Row | melting point | SMILES
60 | 188 to 190 °C | CCOC(=O)COc1ccccc1-c1cc(C#N)c(=O)[nH]c1C
61 | 38 to 40 °C | CSC1CC(=O)N1CC(=O)OCc1ccccc1 (single isomer, unassigned; (-))
62 | 236 to 238 °C | CCCC=C1SC(=S)N(N=c2sc3ccccc3s2)C1=O
63 | 171 to 173 °C | CCCCN(C1CS(=O)(=O)c2ccccc21)S(C)(=O)=O (centres undefined)
64 | 195 to 199 °C | CC(=O)c1cc2c(cc1NC(=O)C(O)(CC(C)(C)c1ccccc1)C(F)(F)F)COC2=O (centres undefined)
65 | 220 °C | CCCC(=O)Nc1n[nH]c2cc(-c3ccccc3)ccc12
66 | 185 to 187 °C | COC(=O)[C@H](Cc1ccc(NC(=O)c2cc(C#N)ccc2Cl)cc1)NC(=O)OC(C)(C)C
67 | 87 to 90 °C | CCc1ccc(-c2cc3c(O)cccc3o2)s1
68 | 89 to 91 °C | OCCC#Cc1ccc2ccccc2n1
69 | 154 to 155 °C | CC(=O)c1ccc2cc(S(N)(=O)=O)sc2c1
70 | 89 to 91 °C | CCCCc1nc(Cl)c(CO)n1Cc1ccc(NC(=O)[C@H](CC#N)NC(=O)OCc2ccccc2)cc1
71 | < 50 °C | CCCCc1nn2cc(C(=O)OCC)ccc2c1C(=O)c1ccc(Br)cc1
72 | 336 to 338 °C | O=c1cnc(-c2ccc([N+](=O)[O-])cc2)c[nH]1
73 | 122 to 124 °C | O=C1NC(c2ccccc2)C(C(=O)NCCO[N+](=O)[O-])O1 (centres undefined)
74 | 198 to 199 °C | COc1ccc(C2=NN(C3CCN(S(=O)(=O)c4ccccc4F)CC3)C(=O)CC2)cc1OC
75 | 202 to 203 °C | COC(=O)COc1ccc2cc3c(c(-c4ccc(OC)cc4)c2c1)CNC3=O
76 | 121 to 125 °C | CN=C(NC#N)C1=CC(C)(COC)Oc2ccc([N+](=O)[O-])cc21 (centres undefined)
77 | 122 to 123 °C | CCOC(=O)c1cc2cc(NC(C)=O)ccc2n1C(=O)OC(C)(C)C
78 | 239 to 243 °C | Cc1cc(C(C)(C)C)c(O)c(S(=O)(=O)Nc2ccc([N+](=O)[O-])cc2Cl)c1
79 | 156 to 158 °C | O=C(c1cc(Br)c(O)c(Br)c1)c1c(Cc2ccccc2)oc2ccccc12

Row | melting point | SMILES
80 | 61 to 62 °C | C=C(COc1ccccc1C=NO)c1ccccc1
81 | 161 to 163 °C | CCOc1nc2c(c3ccccc13)c1cc(Cl)ccc1n2C
82 | 148 to 150 °C | O=Cc1c(-c2cccnc2)[nH]c2ccccc12
83 | 196 to 198 °C | COc1ccc(-c2cc(CO)nn2-c2ccc(S(N)(=O)=O)cc2)cc1I
84 | 227 to 229 °C | Nc1ccc2sc3ccccc3c(=O)c2c1
85 | 125 to 132 °C | [N-]=[N+]=Nc1ccc(Cl)cc1C(=NO)c1ccccc1
86 | 133 to 135 °C | COc1cc2c(cc1OCc1ccccc1)CCN(C(=O)CC13CC4CC(CC(C4)C1)C3)C2
87 | 79.7 to 82.5 °C | O=C(CCCC(=O)C(F)(F)F)c1ccc(-c2cccc3ccccc23)cc1
88 | 160 to 161 °C | CC(C)(C)OC(=O)Nc1ccc(-c2ccc(F)cc2F)cc1NC(=O)CC(=O)c1ccnc(C#N)c1
89 | 235 °C | COc1cc(OC)cc(C(=O)Nc2ccc3ccc(Cl)nc3n2)c1
90 | 82 to 83 °C | CCCCCc1c(C=CC(=O)OC)nc(C(C)C)c(CO)c1-c1ccc(F)cc1
91 | 294 to 296 °C | O=C1c2c(Cl)cccc2-n2c1nc1ccccc1c2=O
92 | 123 °C | COC(=O)c1ccccc1NC(=O)c1ccc(Br)c(C)c1
93 | 57 to 59 °C | CC(C(=O)CCl)c1ccc(-c2ccccc2)c(F)c1 (centres undefined)
94 | 227 to 228 °C | COc1ccc(-c2ccc(N3C[C@H](CNC(C)=O)OC3=O)cc2F)ccc1=O
95 | 80 to 83 °C | COC(=O)c1ccc(CCN(C)CCCC(C#N)(C(=O)OC)c2ccc(OC)c(OC)c2)cc1 (centres undefined)
96 | 144 °C | CCC(=O)N(Cc1ccc(OC(F)(F)F)cc1)c1cc(Cl)cc(-c2nnn[nH]2)c1
97 | 109 to 110 °C | CCCc1nc2ccccn2c(=O)c1-c1ccc(Cl)cc1
98 | 250 to 260 °C | O=C1C=C(N2CCC3(CC2)CSC2=C(O3)c3ccccc3C(=O)C2=O)c2ccccc2C1=O
99 | 158 to 159 °C | Cc1nc(C(c2c(Cl)cccc2Cl)n2cncn2)nc(C)c1N (centres undefined)
